The text below walks through data of patent publication US20110160306A1, “USE OF ALKANEDICARBOXYLIC ACIDS AND RETINOIDS FOR TREATMENT OF ROSACEA AND OTHER INFLAMMATORY SKIN DISEASES” (priority 2006, published 2011).

The test system of the assay is irritative contact dermatitis induced on the ears of mice by croton oil. Nature of the assay: Croton oil-induced irritative contact dermatitis on the mouse ear (ear weight, elastase and peroxidase in ear homogenate). The following applies: for Edema formation Weight change in %: ear weight at 24 h, vs croton oil + vehicle; for Inhibition [%] of Skin infiltration of Granulocytes & Monocytes (Myelo-Peroxidase Activity) / Inhibition [%] of Skin infiltration of Neutrophils Elastase Activity: ear homogenate at 24 h. Type of assay: in vivo. From the text: To do this, an inflammatory reaction, i.e., irritative contact dermatitis, is induced on the ears of mice by means of croton oil, and the test substance is applied. This test is explained in more detail below within the framework of the examples. The induction of an inflammatory reaction (irritative contact dermatitis) is a proven model for pharmacological evaluation of the anti-inflammatory potential of topically or systemically administered test substances ([…] and Lowe (1985) Evaluation of Topical Nonsteroidal Anti-Inflammatory Agents, Models in Dermatology, H. Maibach and N.J. Lowe. Basel, Karger: 35-42). Croton oil is applied to the ears of mice to carry out the study; this leads to an acute, inflammatory reaction with edema and infiltration of primarily polymorphonuclear granulocytes that reaches its peak within 24 hours. Test substance can be applied here either preventively, i.e., before application of the inflammatory stimulus, or simultaneously with croton oil. […] The vehicle alone acted as the vehicle control. […] The animals were sacrificed 24 hours after the eczema was triggered, and the ear weight was determined as a measure of inflammation and edema formation. In addition, the elastase and peroxidase parameters were determined from the ear homogenate. The number of animals was basically n=10/group. Elastase is a largely neutrophil-specific enzyme and thus a measure of the number of infiltrated neutrophilic granulocytes. […] Peroxidase is expressed by all granulocytes, in addition also by monocytes. It is used for measuring the infiltrated granulocytes and monocytes. Like neutrophils, granulocytes and monocytes/macrophages are also involved in inflammatory processes of the skin and can be repeatedly detected in the infiltrate of the aforementioned diseases.

The mark [1] stands for this setting: azelaic acid 10%, listed as azelaic acid.
Where [2] appears, read: azelaic acid 20%, listed as azelaic acid.
The mark [3] stands for this setting: tretinoin 0.05%, listed as tretinoin.

Consider `O=C(O)CCCCCCCC(=O)O` [Azelaic acid, azelaic acid], for which the “Edema formation Weight change in %” value (azelaic acid 10% topical with 1% croton oil) is on record as −6%; the “Edema formation Weight change in %” value (azelaic acid 10% topical with 1% croton oil, listed as azelaic acid) is listed as “no significant reduction of the edema”; the “Edema formation Weight change in %” value (azelaic acid 15% topical with 1% croton oil) was determined as 1%; the “Edema formation Weight change in %” value (azelaic acid 15% topical with 1% croton oil, listed as azelaic acid) is listed as “even an increase”; the “Edema formation Weight change in %” value (azelaic acid 20% topical with 1% croton oil) is recorded as −16%; the “Edema formation Weight change in %” value (azelaic acid 20% topical with 1% croton oil, listed as azelaic acid) is “no significant reduction of the edema”. The “Inhibition [%] of Skin infiltration of Granulocytes & Monocytes (Myelo-Peroxidase Activity)” value is, setting by setting: (azelaic acid 10%) −34%; under setting [1], “could already be influenced”; (azelaic acid 15%) −16%; (azelaic acid 20%) −40%; under setting [2], “could already be influenced”. For the same compound, the “Inhibition [%] of Skin infiltration of Neutrophils Elastase Activity” value runs as follows: (azelaic acid 10%) −12%; under setting [1], “cannot be significantly influenced”; (azelaic acid 15%) −6%; (azelaic acid 15%, listed as azelaic acid) “cannot be significantly influenced”; (azelaic acid 20%) −48%; under setting [2], “reduced”.
On to `CC1=C(/C=C/C(C)=C/C=C/C(C)=C/C(=O)O)C(C)(C)CCC1` [Tretinoin, tretinoin], for which the “Edema formation Weight change in %” value is listed as −4% (tretinoin 0.05% topical with 1% croton oil) and “does not lead to any significant reduction of edema” (tretinoin 0.05% topical with 1% croton oil, listed as tretinoin). The “Inhibition [%] of Skin infiltration of Granulocytes & Monocytes (Myelo-Peroxidase Activity)” value is given as −3% (tretinoin 0.05%) and “did not lead to a significant decrease of peroxidase concentration” under setting [3]. Moreover, the “Inhibition [%] of Skin infiltration of Neutrophils Elastase Activity” value (tretinoin 0.05%) amounted to 2% and the “Inhibition [%] of Skin infiltration of Neutrophils Elastase Activity” value under setting [3] is on record as “did not lead to a decrease of the elastase concentration”.
